Measurements published in PubChem BioAssay (NCI).
“And” between values parts separate entries of the source, which are not always exact repeats. Equal values may be shown once.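 Compound exposure: 48 hours, 5 concentrations, 96-well plates. Abbreviation: GI50, concentration required for 50% inhibition of growth. TGI marks complete inhibition of growth.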

Experiments:
Assay in all cases: NCI tumour cell line growth inhibition, 48 h
HT29 colon = tested on: HT29 colon
TK-10 renal = tested on: TK-10 renal
MALME-3M melanoma = tested on: MALME-3M melanoma
UO-31 renal = tested on: UO-31 renal
OVCAR-3 ovarian = tested on: OVCAR-3 ovarian
HL-60(TB) leukemia = tested on: HL-60(TB) leukemia
SK-MEL-2 melanoma = tested on: SK-MEL-2 melanoma
NCI-H226 lung = tested on: NCI-H226 lung
HS 578T breast = tested on: HS 578T breast
CAKI-1 renal = tested on: CAKI-1 renal

Structure (SMILES)	TGI (HT29 colon)	TGI (TK-10 renal) [µM]	TGI (MALME-3M melanoma) [µM]	TGI (UO-31 renal) [µM]	TGI (OVCAR-3 ovarian) [µM]	TGI (HL-60(TB) leukemia) [µM]	TGI (SK-MEL-2 melanoma) [µM]	TGI (NCI-H226 lung)	TGI (HS 578T breast) [µM]	TGI (CAKI-1 renal) [µM]	GI50 (HT29 colon) [µM]	GI50 (TK-10 renal) [µM]	GI50 (MALME-3M melanoma) [µM]	GI50 (UO-31 renal) [µM]	GI50 (SK-MEL-2 melanoma) [µM]	GI50 (NCI-H226 lung) [µM]	GI50 (OVCAR-3 ovarian) [µM]	GI50 (HL-60(TB) leukemia) [µM]	GI50 (CAKI-1 renal) [µM]	GI50 (HS 578T breast) [µM]
CN(C)CC/C(=N\Nc1ccc(Cl)c(Cl)c1)c1ccccc1	4.05 µM	3.68	13.3	3.25	6.45	5.8	–	–	–	–	–	–	–	–	–	–	–	–	–	–
NC(CSc1nc2ccccn2c1[N+](=O)[O-])C(=O)O (centres undefined)	> 100 µM	> 100	> 100	8.54	> 100	–	> 100	> 100 µM	> 100	> 100	–	–	–	–	–	–	–	–	–	–
COc1cc2ccnc(-c3c4ccccc4c(N)c4c(OC)c(OC)ccc34)c2cc1OC	11.7 µM	22.2	11.5	13.5	–	4.44	16.6	5.66 µM	–	8.72	–	–	–	–	–	–	–	–	–	–
ICCC(c1ccccc1)(c1ccccc1)c1ccccc1	9.07 µM	30.7	3.6	9.87	15	3.88	13.7	27.3 µM	–	17.1	2.34	14	1.9	1.72	4.18	13.7	3.85	1.72	3.83	–
Cc1ccc(S(=O)(=O)SCc2ccccc2CSS(=O)(=O)c2ccc(C)cc2)cc1	52.9 µM	> 100	> 100	> 100	43.7	34.7	–	> 100 µM	–	58.5	–	–	–	–	–	–	–	–	–	–
Cc1ccccc1NC(=O)C1C(=O)N(c2ccccc2C)C(=O)/C1=N\N (centres undefined)	> 100 µM	–	> 100	> 100	> 100	> 100	> 100	> 100 µM	–	> 100	–	–	–	–	–	–	–	–	–	–
O=C(Nc1ccccc1)NS(=O)(=O)c1ccc(N2N=C3c4ccccc4CC3C2c2ccccn2)cc1 (centres undefined)	> 100 µM	45.6	–	> 100	74.4	–	> 100	75.3 µM	> 100	90.2	37.9	11.7	–	48.8	35.6	23.7	21.6	–	26.4	40.7
CCC[CH2][Sn]([CH2]CCC)([O]C(=O)c1cc(OC)c(OC)cc1OC)[O]C(=O)c1cc(OC)c(OC)cc1OC	4.67 µM	2.84	2.08	2.92	2.86	–	2.54	8.26 µM	–	1.63	1.96	1.5	0.793	1.57	1.26	2.21	1.3	–	0.419	–
COc1cc(/C=C/c2ccc(OC(C)=O)cc2)cc(OC)c1OC	> 100 µM	> 100	97.1	56.1	68.2	52.6	–	> 100 µM	–	> 100	–	–	–	–	–	–	–	–	–	–
COc1c(NC(=O)CC(C)=O)[c]([Hg][O]C(C)=O)c(OC)c(Cl)[c]1[Hg][O]C(C)=O	32.6 µM	25.3	16.8	29.7	26	–	27.6	33.9 µM	–	25.6	11.3	12.8	5.17	16.2	14.4	17.7	13.3	–	13	–
CC(=O)C1C(=O)C(=O)N(c2ccccc2N2C(=O)C(=O)C(C(C)=O)C2=O)C1=O (centres undefined)	> 100 µM	> 100	> 100	> 100	> 100	> 100	> 100	> 100 µM	–	> 100	–	–	–	–	–	–	–	–	–	–
O=C1c2cc3c(cc2[C@@H]2[C@H]1c1ccc([N+](=O)[O-])cc1C(=O)N2CCCCl)OCO3	> 100 µM	–	–	–	0.456	–	> 100	0.136 µM	61.5	< 0.01	< 0.01	0.0868	–	< 0.01	0.0827	< 0.01	0.073	–	< 0.01	0.174
N#CCN1CCOCCOCCN(CC#N)CCOCCOCC1	> 100 µM	> 100	> 100	> 100	> 100	> 100	–	> 100 µM	–	> 100	–	–	–	–	–	–	–	–	–	–
O=C(CC(=O)Nc1ccccc1O)Nc1ccccc1O	> 100 µM	> 100	37.7	27	46	6.01	–	> 100 µM	–	> 100	–	–	–	–	–	–	–	–	–	–
CC1=C(C(=O)CC(=O)C(=O)Nc2ccccc2)Sc2ccccc2N1	> 100 µM	–	> 100	> 100	> 100	> 100	> 100	> 100 µM	–	–	–	–	–	–	–	–	–	–	–	–
ClC1=NC(Cl)C(Cl)=N/C1=N\c1ncn[nH]1 (centres undefined)	3.9 µM	3.44	3.7	3.25	3.4	–	5.63	15.9 µM	61	3.32	2.03	1.92	1.82	1.68	2.61	3.27	1.95	–	1.78	14.3
Cc1ccc(C2(O)CC(c3ccc([N+](=O)[O-])o3)=NN2C(=O)COc2ccccc2Cl)cc1 (centres undefined)	> 42 µM	> 86.1	40.3	> 100	19.9	12.9	26.4	> 100 µM	–	> 100	–	–	–	–	–	–	–	–	–	–
Nc1nc(N)c(N=O)c(Nc2ccc(I)cc2)n1	–	62.1	78.3	> 100	43.7	36.7	34.1	–	–	–	–	–	–	–	–	–	–	–	–	–
CCCCCCCCCC1C(C)c2c([nH]c3ccccc23)C2C(=O)N(c3ccccc3)C(=O)C21 (centres undefined)	22.7 µM	73.5	> 100	26.8	10.8	13.4	32.2	24.9 µM	–	28.8	–	–	–	–	–	–	–	–	–	–

Structure (SMILES)	TGI (HT29 colon)	TGI (TK-10 renal) [µM]	TGI (MALME-3M melanoma) [µM]	TGI (UO-31 renal) [µM]	TGI (OVCAR-3 ovarian) [µM]	TGI (HL-60(TB) leukemia) [µM]	TGI (SK-MEL-2 melanoma) [µM]	TGI (NCI-H226 lung)	TGI (HS 578T breast) [µM]	TGI (CAKI-1 renal) [µM]	GI50 (HT29 colon) [µM]	GI50 (TK-10 renal) [µM]	GI50 (MALME-3M melanoma) [µM]	GI50 (UO-31 renal) [µM]	GI50 (SK-MEL-2 melanoma) [µM]	GI50 (NCI-H226 lung) [µM]	GI50 (OVCAR-3 ovarian) [µM]	GI50 (HL-60(TB) leukemia) [µM]	GI50 (CAKI-1 renal) [µM]	GI50 (HS 578T breast) [µM]
N#CSCc1c(Cl)cccc1Cl	> 100 µM	> 29.2	> 100	27.6	5.18	–	> 100	> 100 µM	8.26	> 20.2	3.75	4.51	8.71	4.41	4.02	12.6	2.39	–	0.309	3.04
N#Cc1cccc(/C=C(/C(=O)c2ccccc2)c2ccccc2)c1	15 µM	19.9	27.8	19	11.8	–	–	26.7 µM	33.6	16.1	4.23	5.75	9.61	5.31	–	6.45	3.63	–	3.92	2.9
COc1cc2c(c(OC)c1OC)-c1ccc(SC)c(=O)cc1[C@@H](NCc1cccc(C#N)c1)CC2	0.0348 µM and < 0.0075 µM	> 75	> 75	> 75	0.0493	–	< 0.0075	0.0545 µM and < 0.0075 µM	–	> 75	< 0.0075	16.2	< 0.0075	< 0.0075	< 0.0075	< 0.0075	–	< 0.0075	–	–
CCOC(=O)N1N=NC2C3OC(C[C@@]3(C#N)OC(C)=O)[C@H]21 (some centres undefined)	> 100 µM	> 100	> 100	> 100	> 100	> 100	> 100	> 100 µM	–	> 100	–	–	–	–	–	–	–	–	–	–
CCC1(C(=O)OC)CCc2c(OC)ccc(OC)c2C1=O (centres undefined)	> 100 µM	> 100	> 100	> 100	> 100	> 100	> 100	–	–	> 100	–	–	–	–	–	–	–	–	–	–
O=C(O)C[O][Sb][O]CC(=O)O	> 100 µM	> 100	> 100	> 100	> 100	–	> 100	> 100 µM	> 100	> 100	> 100	> 100	> 100	> 100	> 100	> 100	> 100	–	> 100	> 100
CC(=O)OCC1OC(n2c(=O)n(-c3ccccc3)c(=O)c3cc(Br)cc(Br)c32)C(OC(C)=O)C(OC(C)=O)C1OC(C)=O (centres undefined)	> 100 µM	> 100	> 100	> 100	> 100	> 100	> 100	> 100 µM	–	> 100	–	–	–	–	–	–	–	–	–	–
CC[C@H](C)[C@H](NC(=O)Nc1ccccc1)C(=O)N(C)[C@H](C[C@@H](OC(C)=O)c1nc(C(=O)N[C@@H](Cc2ccccc2)C[C@H](C)C(=O)OC)cs1)C(C)C	> 100 µM	> 100	> 100	> 100	5.96	–	> 100	> 100 µM	8.73	> 100	3.33	9.56	98.2	6.82	3.17	8.83	2.32	–	9.01	2.47
Cc1c(C(=O)/C=C/c2ccccc2Cl)[n+](=O)c2ccccc2n1[O-]	33.8 µM	–	29.2	33.2	29.4	62.8	27.3	28.8 µM	–	10.6	–	–	–	–	–	–	–	–	–	–
COc1cc(C(=O)C/C(CCC(=O)Nc2ccc(Cl)cc2Cl)=N/NC(=O)C(N)=O)ccc1O	> 100 µM	> 100	> 100	> 100	> 100	> 100	> 100	> 100 µM	–	> 100	–	–	–	–	–	–	–	–	–	–
CC(=O)Nc1ccccc1-c1cnc2ccccc2n1	> 100 µM	> 100	> 100	–	> 100	> 100	–	> 100 µM	–	> 100	–	–	–	–	–	–	–	–	–	–
CC(C)(C)OC(=O)NC1CCC[C@H]1O (some centres undefined)	> 100 µM	> 100	> 100	> 100	> 100	–	> 100	> 100 µM	–	> 100	–	–	–	–	–	–	–	–	–	–
Nc1ccc2c(c1)CC1c3ccccc3C(C2)c2ccccc21	> 100 µM	> 100	> 100	> 100	–	> 100	> 100	–	–	> 100	–	–	–	–	–	–	–	–	–	–
CCOC(=O)c1ccc(Nc2sc(C(=O)c3cccc([N+](=O)[O-])c3)c(N)c2C#N)cc1	3.12 µM	17.3	23	20	0.0617	–	24.4	99.5 µM	> 39.1	0.253	0.0398	0.192	0.0754	0.0543	0.403	4.67	0.0218	–	0.044	0.129
O=C(O)CCCCCO	> 100 µM	> 100	> 100	> 100	> 100	> 100	> 100	> 100 µM	–	> 100	–	–	–	–	–	–	–	–	–	–
O=C(OCC1OC(OC(=O)c2cc(O)c(O)c(OC(=O)c3cc(O)c(O)c(O)c3)c2)C(OC(=O)c2cc(O)c(O)c(OC(=O)c3cc(O)c(O)c(O)c3)c2)C(OC(=O)c2cc(O)c(O)c(OC(=O)c3cc(O)c(O)c(O)c3)c2)C1OC(=O)c1cc(O)c(O)c(OC(=O)c2cc(O)c(O)c(O)c2)c1)c1cc(O)c(O)c(OC(=O)c2cc(O)c(O)c(O)c2)c1 (centres undefined)	> 50 µM	28.2	–	> 50	31.2	> 50	> 50	> 50 µM	–	47.5	26.4	7.46	–	17.4	20.6	16.6	9.99	29.4	9.63	–
CCOC(=O)C(Cc1ccccc1)NC(=O)OC(C)(C)C (centres undefined)	> 100 µM	> 100	> 100	> 100	> 100	> 100	> 100	–	–	–	–	–	–	–	–	–	–	–	–	–
CCc1ccc(Nc2cc(=O)[nH]c(=S)n2C)cc1	> 100 µM	> 100	> 100	> 100	> 100	> 100	> 100	> 100 µM	–	> 100	–	–	–	–	–	–	–	–	–	–
O=C(/C=C/c1ccccc1O)c1cccnc1	> 100 µM	> 100	> 100	> 100	> 100	> 100	> 100	> 100 µM	–	> 100	–	–	–	–	–	–	–	–	–	–
